Series [1] relates to UDP-glucuronosyltransferase 1 family, member 1. The series is described as follows: Rat liver microarray (Affymetrix Rat U34), UGT1A probe induction. It counts as in vivo, Sprague-Dawley rats. Conditions: 3-Day Studies.
For series [2], the system named is 1-naphthol glucuronidation. The series is described as follows: Hepatic 1-naphthol glucuronidation activity in liver microsomes of treated rats. On the technique in general: Liver microsomes are vesicles of endoplasmic reticulum, rich in cytochrome P450 enzymes.
The subject of series [3] is 3-methylcholanthrene-inducible UDP-glucuronosyltransferase. The series is described as follows: Rat liver microarray (Affymetrix Rat U34), UGT1A probe induction. Type of series: in vivo, Sprague-Dawley rats.
The test system of series [4] is UDP glucuronosyltransferase, exon 1. The description is as above. Type of series: in vivo, Sprague-Dawley rats.
In another series the test system is UGT1A1. The series is described as follows: Hepatic 17α-ethinylestradiol glucuronidation activity in liver microsomes of treated rats.
For series [5], the system named is UDP-glucuronosyltransferase 1A (UGT1A). The series is described as follows: Rat liver microarray, all UGT1A probe sets. It counts as in vivo, Sprague-Dawley rats. Conditions: dose levels of 100 mg/kg and higher, after 1 and 3 days of treatment.
Series [6] has as its system bilirubin-conjugating activity. As to conditions: cited from earlier work.
Another series concerns the target T1, UGT1A1 isoform (Homo sapiens, UniProt P22309).
T1 sequence (P22309 26-533): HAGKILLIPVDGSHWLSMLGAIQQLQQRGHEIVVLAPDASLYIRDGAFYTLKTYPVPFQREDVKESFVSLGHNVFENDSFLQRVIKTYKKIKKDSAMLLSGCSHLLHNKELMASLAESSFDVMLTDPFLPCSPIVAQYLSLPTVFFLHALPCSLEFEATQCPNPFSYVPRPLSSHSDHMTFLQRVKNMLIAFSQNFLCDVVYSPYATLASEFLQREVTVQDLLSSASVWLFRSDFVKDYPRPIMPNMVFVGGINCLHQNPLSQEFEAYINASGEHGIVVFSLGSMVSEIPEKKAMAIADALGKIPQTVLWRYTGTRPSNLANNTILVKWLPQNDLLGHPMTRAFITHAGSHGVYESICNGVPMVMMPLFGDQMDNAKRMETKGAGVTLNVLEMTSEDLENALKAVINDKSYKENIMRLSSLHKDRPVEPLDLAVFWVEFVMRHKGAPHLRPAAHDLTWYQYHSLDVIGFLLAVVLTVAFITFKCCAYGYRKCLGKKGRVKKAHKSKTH
As to conditions: human cells transfected with the UGT1A1 isoform; cited from earlier work.

In series [7] the test system is bilirubin conjugation in human microsomes. Conditions: in vitro system of human microsomes; cited from earlier work.
The conditions of series [8]: subjects taking atazanavir, one study; cited from earlier work.
A short description of series [9]: Ethinylestradiol pharmacokinetics alone and with ritonavir in healthy female volunteers. It counts as in vivo, human. As for the experimental part:
This was an open-label, single-center study in healthy female volunteers who had not received an oral contraceptive for a minimum of six months prior to study start. Subjects received the first dose of oral contraceptive containing 50 μg of ethinyl estradiol on Day 1. […] On Day 15, 300 mg q12h was administered, 400 mg q12h was given on Day 16, and 500 mg q12h was administered thereafter. […] Blood samples for ethinylestradiol concentrations were collected for 48 h after each of the oral contraceptive doses.
Twenty-seven subjects were enrolled in the study. […] Data from these four subjects were therefore excluded from summary statistics. The mean ±SD age of the 23 subjects who completed the study was 34±10 yrs (range 19 to 45 yrs), the mean ±SD weight was 67.3±10.9 kg (range 50.8 to 90.3 kg), and the mean ±SD height was 167±7 cm (range 155 to 180 cm). […]
Analysis of serum samples for determination of ethinyl estradiol was performed at Pharmaco LSR, Richmond, Va. Ethinylestradiol serum concentrations were determined using a gas chromatography/mass spectrometry (GC/MS) method. […] This method has been validated over 17α-ethinylestradiol concentrations ranging from 2.00 to 256 pg/mL for a 1.0 mL serum volume, with a minimum quantitation limit of 2.00 pg/mL.
Ethinylestradiol pharmacokinetic parameters were estimated following two single doses, on Day 1 and Day 29, using noncompartmental methods. The pharmacokinetic parameters were calculated using the intended sampling times; all samples were collected within 10% of intended sampling times. […] The area under the plasma concentration-time curve (AUC∞) was calculated as the sum of AUCt, the area up to the last measurable concentration computed using the linear trapezoidal rule, and the extrapolation to infinity, calculated as the quotient of the last measurable concentration (Ct) and the terminal elimination rate constant (β). The terminal elimination rate constant was calculated as the negative of the slope of the regression of the logarithms of the plasma concentrations vs. time, starting at 18 h post-dose. […]

[10] abbreviates: 1-Day Studies, 50 mg/kg oral (second column).
The mark [11] stands for this setting: 3-Day Studies, 100 mg/kg oral daily.
The mark [12] stands for this setting: 3-Day Studies, 125 mg/kg oral daily.
The mark [13] stands for this setting: serum ethinylestradiol, single 50 μg oral contraceptive dose, Mean ± SD, n = 23, alone Day 1, with ritonavir 500 mg q12h Day 29.

As to `CC(C)c1nc(CN(C)C(=O)N[C@H](C(=O)N[C@@H](Cc2ccccc2)C[C@H](O)[C@H](Cc2ccccc2)NC(=O)OCc2cncs2)C(C)C)cs1` [Ritonavir], the Fold change in series [1] (50 mg/kg oral daily (first column)) stood at 1.31 fold; in series [1] (50 mg/kg oral daily (second column)) it was 1.33 fold; in series [3] (1-Day Studies, 20 mg/kg oral (first column)), 1.83 fold; in series [3] (1-Day Studies, 20 mg/kg oral (second column)), 1.54 fold; in [3] (1-Day Studies, 50 mg/kg oral (first column)), 1.63 fold; in [3] (setting [10]) it was 2.1 fold. Besides, the Fold change is 1.54 fold in [3] (3-Day Studies, 50 mg/kg oral daily (first column)); 1.85 fold in series [3] (3-Day Studies, 50 mg/kg oral daily (second column)); 1.97 fold in series [3] (3-Day Studies, 75 mg/kg oral daily); 2.26 fold in series [3] (setting [11]); 2.25 fold in [3] (setting [12]); 2.43 fold in series [4] (setting [10]). In addition, the Fold change in series [4] (setting [11]) was 3.96 fold; in series [4] (setting [12]), 5.06 fold. The 1-naphthol glucuronidation is listed as 7.3 ± 1.2 nmol/mg/min in series [2] (Females, T1: ritonavir 15 mg/kg oral daily 14 days, 50 μM substrate); 33.7 ± 5.2 nmol/mg/min in series [2] (Females, T1: ritonavir 15 mg/kg oral daily 14 days, 1000 μM substrate); 10.0 ± 2.7 nmol/mg/min in series [2] (Females, T2: ritonavir 50 mg/kg oral daily 14 days, 50 μM substrate); 37.7 ± 4.9 nmol/mg/min in series [2] (Females, T2: ritonavir 50 mg/kg oral daily 14 days, 1000 μM substrate); 9.5 ± 1.5 nmol/mg/min in series [2] (Males, T1: ritonavir 15 mg/kg oral daily 14 days, 50 μM substrate); 23.0 ± 2.5 nmol/mg/min in series [2] (Males, T1: ritonavir 15 mg/kg oral daily 14 days, 1000 μM substrate). The 1-naphthol glucuronidation in series [2] (Males, T2: ritonavir 50 mg/kg oral daily 14 days, 50 μM substrate) was determined as 8.3 ± 1.4 nmol/mg/min; in series [2] (Males, T2: ritonavir 50 mg/kg oral daily 14 days, 1000 μM substrate), 22.8 ± 4.3 nmol/mg/min. Further, the 17α-ethinylestradiol glucuronidation in the series on UGT1A1 (Females, T1: ritonavir 15 mg/kg oral daily 14 days, 100 μM substrate) is 54.5 ± 24.0 pmol/mg/min; with UGT1A1 (Females, T1: ritonavir 15 mg/kg oral daily 14 days, 250 μM substrate) it was 336.4 ± 75.8 pmol/mg/min; in the series on UGT1A1 (Females, T2: ritonavir 50 mg/kg oral daily 14 days, 100 μM substrate), 146.5 ± 26.0 pmol/mg/min; with UGT1A1 (Females, T2: ritonavir 50 mg/kg oral daily 14 days, 250 μM substrate), 590.9 ± 101.2 pmol/mg/min; in the series on UGT1A1 (Males, T1: ritonavir 15 mg/kg oral daily 14 days, 100 μM substrate), 58.8 ± 2.2 pmol/mg/min; in the series with UGT1A1 (Males, T1: ritonavir 15 mg/kg oral daily 14 days, 250 μM substrate), 171.8 ± 38.1 pmol/mg/min. Besides, the 17α-ethinylestradiol glucuronidation in the series with UGT1A1 (Males, T2: ritonavir 50 mg/kg oral daily 14 days, 100 μM substrate) is listed as 34.0 ± 10.0 pmol/mg/min; with UGT1A1 (Males, T2: ritonavir 50 mg/kg oral daily 14 days, 250 μM substrate) it was 290.1 ± 45.6 pmol/mg/min. For the same compound, the “glucuronidation of 17α-ethinylestradiol, a UGT1A1 substrate” value in the series on UGT1A1 (both male and female rats) is “significantly increase”. Further, in the series with UGT1A1 (both male and female rats treated with 50 mg/kg/day), the “increase in glucuronidation of 17α-ethinylestradiol” value is reported as 2 fold. The “UG1A levels for all probe sets” value in series [5] was “consistent increase”.
Take `CC(C)(C)NC(=O)[C@@H]1CN(Cc2cccnc2)CCN1C[C@@H](O)C[C@@H](Cc1ccccc1)C(=O)N[C@H]1c2ccccc2C[C@H]1O` [indinavir, Indinavir]: in series [6], the “inhibition of bilirubin-conjugating activity” value is “direct inhibition of bilirubin-conjugating activity”.
For the compound `COC(=O)N[C@H](C(=O)N[C@@H](Cc1ccccc1)[C@@H](O)CN(Cc1ccc(-c2ccccn2)cc1)NC(=O)[C@@H](NC(=O)OC)C(C)(C)C)C(C)(C)C` [atazanavir, Atazanavir], the “inhibition of bilirubin conjugation” value (on UGT1A1 isoform; in series [7]) was “inhibits bilirubin conjugation in the micromolar range” each time. In addition, in series [8], the “subjects exhibiting unconjugated hyperbilirubinemia” value was 57%.
Consider `CCC1(c2ccccc2)C(=O)NC(=O)NC1=O` [Phenobarbitol], for which the 1-naphthol glucuronidation in series [2] (Females, T3: phenobarbital 50 mg/kg intraperitoneal daily 4 days, 50 μM substrate) is given as 9.3 ± 0.4 nmol/mg/min; in [2] (Females, T3: phenobarbital 50 mg/kg intraperitoneal daily 4 days, 1000 μM substrate) it was 46.4 ± 8.6 nmol/mg/min; in series [2] (Males, T3: phenobarbital 50 mg/kg intraperitoneal daily 4 days, 50 μM substrate), 15.4 ± 3.1 nmol/mg/min; in series [2] (Males, T3: phenobarbital 50 mg/kg intraperitoneal daily 4 days, 1000 μM substrate), 41.0 ± 5.0 nmol/mg/min. Besides, the 17α-ethinylestradiol glucuronidation with UGT1A1 (Females, T3: phenobarbital 50 mg/kg intraperitoneal daily 4 days, 100 μM substrate) was found to be 91.0 ± 34.0 pmol/mg/min; in the series with UGT1A1 (Females, T3: phenobarbital 50 mg/kg intraperitoneal daily 4 days, 250 μM substrate), 360.6 ± 88.1 pmol/mg/min; in the series on UGT1A1 (Males, T3: phenobarbital 50 mg/kg intraperitoneal daily 4 days, 100 μM substrate), 45.1 ± 16.5 pmol/mg/min; in the series with UGT1A1 (Males, T3: phenobarbital 50 mg/kg intraperitoneal daily 4 days, 250 μM substrate) it was 258.5 ± 98.5 pmol/mg/min.
As for `C#C[C@]1(O)CC[C@H]2[C@@H]3CCc4cc(O)ccc4[C@H]3CC[C@@]21C` [Ethinylestradiol, 17α-ethinylestradiol], in series [9] (setting [13]), the Tmax (commonly the time at which the peak concentration occurs) came to 4.0 ± 1.7 h and the “β (terminal elimination rate constant)” value was 0.0407 ± 0.0082 h⁻¹. In series [9] (single dose of oral contraceptive), the “time at which serum ethinylestradiol concentrations peaked post-dose” value is reported as “approximately 4 h”.

These data come from patent US20100261731A1, “Method for Treating a Disease, Disorder or Adverse Effect Caused by an Elevated Serum Concentration of an UGT1A1 Substrate” (Abbott Laboratories, priority 2009, published 2010).
